pIC50: −log10 of the molar value. Like-named read-outs stand apart in the source and are kept apart here.
What was measured:
[1] = system: Smad2/Smad3 phosphorylation; assay: Phospho-Smad2/3 Inhibition Assay (western blot), Panc-1; assay type: cell-based, human; details: at 10 μM, Panc-1 pancreatic cancer cell line; starred symbols = activation
Procedure, shortened: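 Western blotting of lysates (15-50 μg protein) read phosphorylation of Smad2 Ser465/467 and Smad3 Ser423/425. Before lysis, Panc-1 cells got 1 h of 10 ng/ml TGF-b1 following 3 h compound exposure at 37° C (10 μM final, or serial dilutions for IC50, 0.3% DMSO) after overnight 0.5% FBS starvation.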

TNF-alpha = TNF-alpha Quantification Assay (ELISA), LPS-stimulated RAW 264.7; assay type: cell-based; details: Mus musculus, RAW264.7; at 10 μM; read-out: TNFα: % inh.
[2] = system: MiaPaca-2 (expressing KRAS G12C mutant); assay: Proliferation Assay (Cell Viability Assay); assay type: cell-based; details: Homo sapiens, MIA PaCa-2; for pIC50: read-out: Proliferation in MiaPaca-2: IC50
Procedure, shortened: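 After 2–4 days' exposure at 37 °C, 5% CO2 to a single 10 μM final concentration or a dilution series (IC50), percent proliferation inhibition was derived from CellTiter 96 Aqueous One viability readings. The medium contained 0.3% DMSO and 10% FBS. KRAS G12C MiaPaca-2 cells were plated at 2000–5000/well the day before.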

| Compound | % inh of Smad2/3 phosphorylation in Panc-1 [1] | inhibition at 10 µM (TNF-alpha) | pIC50 [2] | IC50 ([2]; Proliferation assay, MiaPaca-2, read-out: MiaPaca-2 IC50 (nM) Pancreatic) |
| --- | --- | --- | --- | --- |
| COc1ccnc(Nc2nc(-c3nccn3C)nn3cc(-c4c(F)cccc4OC)c(-c4ccccc4)c23)c1 [Compound 217, 6-(2-Fluoro-6-methoxyphenyl)-N-(4-methoxypyridin-2-yl)-2-(1-methyl-1H-imidazol-2-yl)-5-phenylpyrrolo[2,1-f][1,2,4]triazin-4-amine] | C (C = 46-75% inhibition) | 25 to 49% | > 6.82 |  |
| COc1cccc(-c2cn3nc(-c4nccn4C)nc(O)c3c2C)c1Cl [Compound 15, 6-(2-Chloro-3-methoxyphenyl)-5-methyl-2-(1-methyl-1H-imidazol-2-yl)pyrrolo[2,1-f][1,2,4]triazin-4-ol] | 0 (0 = 0% inhibition) | 0% | < 6.00 |  |
| CO[C@H]1CC[C@@H](Nc2nc(-c3nccn3C)nn3cc(-c4cccnc4)c(-c4ccccc4)c23)C1 (racemic) [Compound 193, rac N-((1R,3S)-3-Methoxycyclopentyl)-2-(1-methyl-1H-imidazol-2-yl)-5-phenyl-6-(pyridin-3-yl)pyrrolo[2,1-f][1,2,4]triazin-4-amine] | A (A = 1-25% inhibition) | 25 to 49% | < 6.00 |  |
| Cc1c(-c2ccn(C)n2)cn2nc(-c3nccn3C)nc(Nc3cc(OCCNC(=O)CCCC[C@H]4SC[C@H]5NC(=O)N[C@H]54)ccn3)c12 [Compound 186, N-(2-((2-((5-Methyl-2-(1-methyl-1H-imidazol-2-yl)-6-(1-methyl-1H-pyrazol-3-yl)pyrrolo[2,1-f][1,2,4]triazin-4-yl)amino)pyridin-4-yl)oxy)ethyl)-5-((3aR,4R,6aS)-2-oxohexahydro-1H-thieno[3,4-d]imidazol-4-yl)pentanamide] | D* (D* = 76-100% activation) | 1 to 24% | < 6.00 |  |
| COCCNc1nc(-c2nccn2C)nn2cc(-c3cccc(OC)c3Cl)c(C)c12 [Compound 16, 6-(2-Chloro-3-methoxyphenyl)-N-(2-methoxyethyl)-5-methyl-2-(1-methyl-1H-imidazol-2-yl)pyrrolo[2,1-f][1,2,4]triazin-4-amine] | 0 (0 = 0% inhibition) | 0% | < 6.00 |  |
| COc1cc(Nc2nc(-c3nccn3C)nn3cc(-c4ccn(C)n4)c(C)c23)ncc1C1CC1 [Compound 238, N-(5-Cyclopropyl-4-methoxypyridin-2-yl)-5-methyl-2-(1-methyl-1H-imidazol-2-yl)-6-(1-methyl-1H-pyrazol-3-yl)pyrrolo[2,1-f][1,2,4]triazin-4-amine] | 0 (0 = 0% inhibition) | 50 to 74% | > 6.82 | 1 to 10 nM |
| CO[C@H]1CC[C@H](Nc2nc(-c3nccn3C)nn3cc(-c4ccncc4)c(-c4ccccc4)c23)C1 (racemic) [Compound 201, rac N-((1S,3S)-3-Methoxycyclopentyl)-2-(1-methyl-1H-imidazol-2-yl)-5-phenyl-6-(pyridin-4-yl)pyrrolo[2,1-f][1,2,4]triazin-4-amine] | A (A = 1-25% inhibition) | 50 to 74% | < 6.00 |  |
| COc1ccc(N(C)c2nc(-c3nccn3C)nn3cc(-c4ccn(C)n4)c(C)c23)nc1 [Compound 225, N-(5-Methoxypyridin-2-yl)-N,5-dimethyl-2-(1-methyl-1H-imidazol-2-yl)-6-(1-methyl-1H-pyrazol-3-yl)pyrrolo[2,1-f][1,2,4]triazin-4-amine] | 0 (0 = 0% inhibition) | 0% | < 6.00 |  |
| Cc1c(-c2ccn(C)n2)cn2nc(-c3nccn3C)nc(Nc3ccc(OCC(F)(F)F)cn3)c12 [Compound 230, 5-Methyl-2-(1-methyl-1H-imidazol-2-yl)-6-(1-methyl-1H-pyrazol-3-yl)-N-(5-(2,2,2-trifluoroethoxy)pyridin-2-yl)pyrrolo[2,1-f][1,2,4]triazin-4-amine] | D (D = 76-100% inhibition) | 1 to 24% | > 6.82 |  |
| COc1cccc(-c2cn3nc(-c4nccn4C)nc(N[C@H]4C[C@H](OC)C4)c3c2-c2ccccc2)c1OC [Compound 219, 6-(2,3-Dimethoxyphenyl)-N-((1r,3r)-3-methoxycyclobutyl)-2-(1-methyl-1H-imidazol-2-yl)-5-phenylpyrrolo[2,1-f][1,2,4]triazin-4-amine] | D (D = 76-100% inhibition) | 75 to 100% | 6.00 to 6.29 |  |
| Cc1c(-c2ccn(C)n2)cn2nc(-c3nccn3C)nc(Nc3ccc(OC(F)(F)F)cn3)c12 [Compound 232, 5-Methyl-2-(1-methyl-1H-imidazol-2-yl)-6-(1-methyl-1H-pyrazol-3-yl)-N-(5-(trifluoro-methoxy)pyridin-2-yl)pyrrolo[2,1-f][1,2,4]triazin-4-amine] | B (B = 26-45% inhibition) | 1 to 24% | > 6.82 |  |
| Cc1cnc2c(c1)CCN2c1nc(-c2nccn2C)nn2cc(-c3ccn(C)n3)c(C)c12 [Compound 239, 5-Methyl-2-(1-methyl-1H-imidazol-2-yl)-6-(1-methyl-1H-pyrazol-3-yl)-4-(5-methyl-2,3-dihydro-1H-pyrrolo[2,3-b]pyridin-1-yl)pyrrolo[2,1-f][1,2,4]triazine] | 0 (0 = 0% inhibition) | 1 to 24% | > 6.82 |  |
| COC[C@@H]1CC[C@@H]1CNc1nc(-c2ccccn2)nn2cc(-c3ccn(C(C)C)n3)c(C)c12 (racemic) [Compound 11, rac 6-(1-Isopropyl-1H-pyrazol-3-yl)-N-(((1S,2R)-2-(methoxymethyl)cyclobutyl)methyl)-5-methyl-2-(pyridin-2-yl)pyrrolo[2,1-f][1,2,4]triazin-4-amine] | 0 (0 = 0% inhibition) | 0% | < 6.00 |  |
| COc1ccnc(Oc2nc(-c3nccn3C)nn3cc(-c4ccn(C)n4)c(C)c23)c1 [Compound 220, 4-((4-Methoxypyridin-2-yl)oxy)-5-methyl-2-(1-methyl-1H-imidazol-2-yl)-6-(1-methyl-1H-pyrazol-3-yl)pyrrolo[2,1-f][1,2,4]triazine] | C (C = 46-75% inhibition) | 1 to 24% | < 6.00 |  |
| COc1cc(Nc2nc(-c3nccn3C)nn3cc(-c4ccn(C)n4)c(C)c23)ncc1F [Compound 237, N-(5-Fluoro-4-methoxypyridin-2-yl)-5-methyl-2-(1-methyl-1H-imidazol-2-yl)-6-(1-methyl-1H-pyrazol-3-yl)pyrrolo[2,1-f][1,2,4]triazin-4-amine] | A (A = 1-25% inhibition) | 0% | > 6.82 |  |
| Cn1ccnc1-c1nc(O)c2c(-c3ccccc3)c(-c3cccnc3)cn2n1 [Compound 189, 2-(1-Methyl-1H-imidazol-2-yl)-5-phenyl-6-(pyridin-3-yl)pyrrolo[2,1-f][1,2,4]triazin-4-ol] | B (B = 26-45% inhibition) | 1 to 24% | < 6.00 |  |
| COc1ccnc(Nc2nc(-c3nccn3C)nn3cc(-c4ccn(CCNC(=O)CCCC[C@H]5SC[C@H]6NC(=O)N[C@H]65)n4)c(C)c23)c1 [Compound 215, N-(2-(3-(4-((4-methoxypyridin-2-yl)amino)-5-methyl-2-(1-methyl-1H-imidazol-2-yl)pyrrolo[2,1-f][1,2,4]triazin-6-yl)-1H-pyrazol-1-yl)ethyl)-5-((3aR,4R,6aS)-2-oxohexahydro-1H-thieno[3,4-d]imidazol-4-yl)pentanamide] | C (C = 46-75% inhibition) | 25 to 49% | < 6.00 |  |
| Cc1c(-c2ccn(C)n2)cn2nc(-c3nccn3C)nc(N)c12 [Compound 211, 5-Methyl-2-(1-methyl-1H-imidazol-2-yl)-6-(1-methyl-1H-pyrazol-3-yl)pyrrolo[2,1-f][1,2,4]triazin-4-amine] | D (D = 76-100% inhibition) | 0% | < 6.00 |  |

From patent US12459951B2, “Compounds that interact with RAS superfamily proteins for treatment of cancers, inflammatory diseases, rasopathies, and fibrotic disease” (SHY Therapeutics, LLC, priority 2022, dated 2025)
